Reference: ChEMBL document CHEMBL1201862, “PubChem BioAssay data set” (2004)
Calls of active or inactive are those of the source.

Legend:
[1] = biological target: Beta-galactosidase (Escherichia coli, UniProt Q8VNN2); experiment: Dose response counterscreen for EBI2 assay utilizing the enzyme, b-galactosidase.; type: functional
[2] = biological target: T1, DNA repair protein RAD52 homolog (Homo sapiens, UniProt P43351); type: functional, biochemical
T1 sequence (P43351 whole entry): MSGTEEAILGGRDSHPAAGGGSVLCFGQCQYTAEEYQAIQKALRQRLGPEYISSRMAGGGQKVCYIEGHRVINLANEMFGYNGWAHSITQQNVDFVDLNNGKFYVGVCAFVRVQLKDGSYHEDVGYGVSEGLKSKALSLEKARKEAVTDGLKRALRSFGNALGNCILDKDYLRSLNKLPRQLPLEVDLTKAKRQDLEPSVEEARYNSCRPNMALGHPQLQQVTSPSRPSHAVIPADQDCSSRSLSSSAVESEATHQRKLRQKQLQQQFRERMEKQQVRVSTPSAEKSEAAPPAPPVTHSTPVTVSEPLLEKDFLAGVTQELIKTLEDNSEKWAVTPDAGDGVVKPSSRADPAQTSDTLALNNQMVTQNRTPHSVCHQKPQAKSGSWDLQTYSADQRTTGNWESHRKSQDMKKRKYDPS

[3] = HeLa cell cytotoxicity, dose response, cytotoxicity control for MgcRacGAP inhibitor project (AID 624300); type: functional
[4] = biological target: Nonstructural protein 1 (Influenza A virus, UniProt Q194T2); type: functional, Influenza A virus (A/California/07/2009(H1N1))
[5] = biological target: T2, Rac GTPase-activating protein 1 (Homo sapiens, UniProt Q9H0H5); experiment: MgcRacGAP GTPase-activating activity inhibitors, confirmation, biochemical, ADP Hunter fluorescence, primary and confirmatory (AID 624330); type: functional
T2 sequence (Q9H0H5 whole entry): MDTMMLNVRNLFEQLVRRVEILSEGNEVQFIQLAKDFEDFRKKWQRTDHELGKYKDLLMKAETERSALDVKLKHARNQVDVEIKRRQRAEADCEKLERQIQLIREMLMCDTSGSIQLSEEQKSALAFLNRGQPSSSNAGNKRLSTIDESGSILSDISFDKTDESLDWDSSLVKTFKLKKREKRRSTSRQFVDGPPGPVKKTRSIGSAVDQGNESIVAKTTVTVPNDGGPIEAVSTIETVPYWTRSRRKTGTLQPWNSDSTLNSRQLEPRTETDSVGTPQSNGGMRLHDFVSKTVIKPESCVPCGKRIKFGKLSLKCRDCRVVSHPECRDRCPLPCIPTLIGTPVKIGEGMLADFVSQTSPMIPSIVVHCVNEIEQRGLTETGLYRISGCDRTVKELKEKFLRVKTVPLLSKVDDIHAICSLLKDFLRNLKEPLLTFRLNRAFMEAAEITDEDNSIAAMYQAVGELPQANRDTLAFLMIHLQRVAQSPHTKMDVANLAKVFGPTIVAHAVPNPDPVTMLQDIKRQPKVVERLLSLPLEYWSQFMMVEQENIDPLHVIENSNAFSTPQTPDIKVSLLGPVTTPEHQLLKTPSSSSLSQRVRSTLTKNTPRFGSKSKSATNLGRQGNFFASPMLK

[6] = microbe, parasite or virus in culture; type: functional; conditions: Mycobacterium tuberculosis
[7] = intracellular Trypanosoma cruzi inhibitors in host cells – cell-based, plate reader, cherry-pick samples, set 3, dose response (AID 651818); type: functional;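 also: compounds incubated with infected cells for about four days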
[8] = biological target: FAD-linked sulfhydryl oxidase ALR (Homo sapiens, UniProt P55789); experiment: inhibitors of human ALR sulfhydryl oxidase, dose response, biochemical, H2O2 detection, luminescence, cherry-pick (AID 493248)
[9] = biological target: Large T antigen (Simian virus 40, UniProt P03070); type: functional, Betapolyomavirus macacae;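 also: Confirmatory-stage PubChem screen for compounds that inhibit SV40 T antigen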
[10] = biological target: Induced myeloid leukemia cell differentiation protein Mcl-1 (Homo sapiens, UniProt Q07820); type: functional
[11] = biological target: T3, High affinity choline transporter 1 (Homo sapiens, UniProt Q9GZV3); experiment: CHT inhibitors, dose response, cell-based, 5-point CRC, membrane potential dye (AID 504840); type: functional
T3 sequence (Q9GZV3 whole entry): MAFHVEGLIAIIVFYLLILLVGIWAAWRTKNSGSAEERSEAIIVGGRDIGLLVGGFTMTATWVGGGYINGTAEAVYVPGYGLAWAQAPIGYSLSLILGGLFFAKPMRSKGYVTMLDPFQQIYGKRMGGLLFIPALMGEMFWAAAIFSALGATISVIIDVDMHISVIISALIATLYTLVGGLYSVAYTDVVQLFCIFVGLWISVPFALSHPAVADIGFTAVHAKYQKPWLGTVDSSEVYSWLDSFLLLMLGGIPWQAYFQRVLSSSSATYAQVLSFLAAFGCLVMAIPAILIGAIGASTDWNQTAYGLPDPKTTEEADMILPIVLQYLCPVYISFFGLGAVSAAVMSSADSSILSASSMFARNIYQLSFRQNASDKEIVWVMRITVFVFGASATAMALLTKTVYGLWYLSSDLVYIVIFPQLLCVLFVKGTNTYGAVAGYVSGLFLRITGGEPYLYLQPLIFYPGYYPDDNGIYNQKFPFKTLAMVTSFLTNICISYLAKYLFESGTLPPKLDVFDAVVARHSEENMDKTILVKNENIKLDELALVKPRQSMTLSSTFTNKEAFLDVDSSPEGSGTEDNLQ

[12] = inhibitors of HIV Env-driven cell fusion, dose response, cherry-pick (AID 652057); type: functional, cell-based
[13] = ZM109 Env clade C HIV-1 fusion inhibitors, dose response, HeLa effector, CEM target cells, luciferase, cherry-pick (AID 652058); type: functional, cell-based
[14] = inhibitors of clade B AD8 Env fusion, dose response, cell-based, cherry-pick (AID 652062); type: functional;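 also: luciferase signal from cell-cell fusion driven by HIV-1 clade B AD8 Env; potency is for inhibitors of fusion seen as a drop in luminescence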
[15] = biological target: T4, Probable nicotinate-nucleotide adenylyltransferase (Staphylococcus aureus (strain N315), UniProt P65502); type: functional, Staphylococcus aureus subsp. aureus N315; conditions: read-out: IC50_Mean;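 as to IC50 Mean: confirmatory dose-response retesting of NadD inhibitor hits first found in an ultra-high-throughput screen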
[16] = biological target: T4, Probable nicotinate-nucleotide adenylyltransferase; type: functional, Staphylococcus aureus subsp. aureus N315

Sequence of Beta-galactosidase (Q8VNN2 whole entry): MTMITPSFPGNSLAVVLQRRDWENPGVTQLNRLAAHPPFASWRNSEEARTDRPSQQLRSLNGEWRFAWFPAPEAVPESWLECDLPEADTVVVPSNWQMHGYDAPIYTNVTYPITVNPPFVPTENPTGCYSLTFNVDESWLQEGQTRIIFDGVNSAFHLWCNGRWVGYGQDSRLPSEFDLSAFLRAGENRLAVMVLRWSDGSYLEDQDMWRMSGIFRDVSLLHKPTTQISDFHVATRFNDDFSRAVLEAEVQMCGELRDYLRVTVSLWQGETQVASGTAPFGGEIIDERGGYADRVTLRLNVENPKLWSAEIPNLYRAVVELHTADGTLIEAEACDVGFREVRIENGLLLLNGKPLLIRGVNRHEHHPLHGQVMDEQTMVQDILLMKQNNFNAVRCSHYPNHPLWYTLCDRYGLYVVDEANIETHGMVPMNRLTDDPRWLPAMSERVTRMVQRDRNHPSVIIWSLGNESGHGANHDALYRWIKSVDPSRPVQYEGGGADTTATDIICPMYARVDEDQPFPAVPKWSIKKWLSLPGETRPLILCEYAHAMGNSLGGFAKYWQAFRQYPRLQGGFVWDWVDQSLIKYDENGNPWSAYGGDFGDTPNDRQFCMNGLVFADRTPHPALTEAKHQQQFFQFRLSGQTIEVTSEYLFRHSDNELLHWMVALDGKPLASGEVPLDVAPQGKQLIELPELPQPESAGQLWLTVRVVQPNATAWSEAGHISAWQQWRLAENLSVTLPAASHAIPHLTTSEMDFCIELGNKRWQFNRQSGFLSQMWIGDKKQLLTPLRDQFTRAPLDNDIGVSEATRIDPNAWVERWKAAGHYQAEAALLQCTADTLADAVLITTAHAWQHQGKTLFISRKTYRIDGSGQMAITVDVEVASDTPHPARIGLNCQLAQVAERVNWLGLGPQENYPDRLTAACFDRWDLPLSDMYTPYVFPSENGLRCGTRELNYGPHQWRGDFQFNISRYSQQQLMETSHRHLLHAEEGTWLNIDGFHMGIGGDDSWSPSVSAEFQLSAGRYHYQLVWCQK
T4 sequence (P65502 whole entry): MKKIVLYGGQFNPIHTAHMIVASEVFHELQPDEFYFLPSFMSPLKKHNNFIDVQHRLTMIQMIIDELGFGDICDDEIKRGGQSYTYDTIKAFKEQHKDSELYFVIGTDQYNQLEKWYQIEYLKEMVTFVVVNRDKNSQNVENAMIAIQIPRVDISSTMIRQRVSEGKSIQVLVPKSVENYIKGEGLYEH
Sequence of FAD-linked sulfhydryl oxidase ALR (P55789 whole entry): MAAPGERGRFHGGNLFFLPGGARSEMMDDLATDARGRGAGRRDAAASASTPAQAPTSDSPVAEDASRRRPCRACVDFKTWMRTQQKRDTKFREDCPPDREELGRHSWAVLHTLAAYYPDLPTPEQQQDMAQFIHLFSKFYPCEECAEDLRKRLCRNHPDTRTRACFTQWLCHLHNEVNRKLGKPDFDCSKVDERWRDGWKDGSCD
Sequence of Nonstructural protein 1 (Q194T2 whole entry): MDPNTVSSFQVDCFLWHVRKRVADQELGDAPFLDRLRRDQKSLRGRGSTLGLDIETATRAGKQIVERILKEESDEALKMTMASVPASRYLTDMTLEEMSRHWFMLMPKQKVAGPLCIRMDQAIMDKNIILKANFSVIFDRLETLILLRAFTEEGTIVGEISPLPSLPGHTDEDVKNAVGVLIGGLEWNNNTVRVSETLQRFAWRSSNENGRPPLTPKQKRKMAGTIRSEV
Sequence of Large T antigen (P03070 whole entry): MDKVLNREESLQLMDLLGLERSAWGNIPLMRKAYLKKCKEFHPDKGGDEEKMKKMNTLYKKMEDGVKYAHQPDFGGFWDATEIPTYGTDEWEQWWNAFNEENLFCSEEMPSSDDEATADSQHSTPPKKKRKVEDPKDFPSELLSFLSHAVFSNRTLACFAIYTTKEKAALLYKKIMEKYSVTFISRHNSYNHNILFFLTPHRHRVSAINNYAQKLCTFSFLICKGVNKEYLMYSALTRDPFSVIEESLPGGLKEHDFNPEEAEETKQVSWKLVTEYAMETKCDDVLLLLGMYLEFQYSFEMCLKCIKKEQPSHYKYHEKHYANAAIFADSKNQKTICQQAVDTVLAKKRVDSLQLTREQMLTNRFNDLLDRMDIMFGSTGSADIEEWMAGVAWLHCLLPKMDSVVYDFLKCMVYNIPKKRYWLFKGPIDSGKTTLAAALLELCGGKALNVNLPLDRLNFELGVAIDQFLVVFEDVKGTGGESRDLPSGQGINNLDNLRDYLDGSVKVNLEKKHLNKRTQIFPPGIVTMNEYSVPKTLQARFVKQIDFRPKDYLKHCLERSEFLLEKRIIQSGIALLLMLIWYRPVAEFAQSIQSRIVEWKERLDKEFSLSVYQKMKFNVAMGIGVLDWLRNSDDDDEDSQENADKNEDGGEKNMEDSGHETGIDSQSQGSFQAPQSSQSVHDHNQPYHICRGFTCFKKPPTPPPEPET
Sequence of Induced myeloid leukemia cell differentiation protein Mcl-1 (Q07820 whole entry): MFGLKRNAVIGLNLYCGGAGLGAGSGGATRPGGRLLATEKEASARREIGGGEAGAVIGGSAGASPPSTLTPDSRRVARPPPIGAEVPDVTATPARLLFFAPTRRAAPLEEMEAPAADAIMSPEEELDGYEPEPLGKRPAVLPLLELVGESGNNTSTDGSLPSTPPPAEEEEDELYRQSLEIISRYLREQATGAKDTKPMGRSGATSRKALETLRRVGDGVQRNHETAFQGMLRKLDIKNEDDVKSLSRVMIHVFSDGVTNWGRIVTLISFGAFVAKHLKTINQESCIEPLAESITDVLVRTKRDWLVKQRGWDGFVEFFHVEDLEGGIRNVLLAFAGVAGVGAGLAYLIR

**Q.** Which IC50 [1] does the source give for `Cc1cc(C)c(S(=O)(=O)N2CCN(C(=O)c3ccc(-n4nc(C)c(Cl)c4C)cc3)CC2)c(C)c1` here?
**A.** Its IC50 is > 80 µM (inactive).

**Q.** Which results are given for `Cc1ccc(NCCN(C)C)c2c(=O)c3cc(O)ccc3sc12`?
**A.** AC50 [2]: 0.32 µM (active); CC50 [3]: 27.7 µM (active); IC50 [4]: 21.7 µM (active); IC50 [5]: 24 µM (active)

**Q.** Which IC50 [1] does the source give for `O=C(/C=C/c1ccc(Cl)cc1)N1CCN(c2ccc(Cl)cc2[N+](=O)[O-])CC1` here?
**A.** The IC50 was > 80 µM (inactive).

**Q.** What about the CC50 [6] of the same compound?
**A.** Its CC50 is > 40 µM (active).

**Q.** Which AC50 [7] does the source give for `C[C@@H]1CN([C@@H](C)CO)C(=O)Cc2cc(NC(=O)Nc3ccc(C(F)(F)F)cc3)ccc2O[C@@H]1CN(C)S(=O)(=O)c1ccc(F)cc1` here?
**A.** The AC50 was 6.4 µM (active).

**Q.** With `COc1cc(C(=O)Nc2ccc(N(C)C)cc2)cc(OC)c1OC` as the compound, how does the AC50 [8] read?
**A.** Its AC50 is 1.31 µM (active).

**Q.** What about the IC50 [9] of the same compound?
**A.** The IC50 was 6.34 µM (active).

**Q.** And the IC50 [10]?
**A.** Its IC50 is 4.78 µM (not active).

**Q.** With `CC(C)(C)NC(=O)NC(=O)CN1CCC(Cc2ccccc2)CC1` as the compound, how does the IC50 [11] read?
**A.** Its IC50 is 12 µM (active).

**Q.** For `CC(=O)N1CCOc2ccc(S(=O)(=O)N3CCC(C(=O)NCc4ccc(Cl)cc4)CC3)cc21`, which IC50 [1] is on record?
**A.** Its IC50 is > 80 µM (inactive).

**Q.** With `COc1ccccc1CNC(=O)C[C@H]1C[C@@H]2c3cc(NS(=O)(=O)c4ccc(F)cc4)ccc3O[C@@H]2[C@H](CO)O1` as the compound, how does the AC50 [12] read?
**A.** The AC50 was < 0.26 µM (active).

**Q.** And the AC50 [13]?
**A.** Its AC50 is < 0.26 µM (active).

**Q.** What about the AC50 [14] of the same compound?
**A.** Its AC50 is < 0.26 µM (active).

**Q.** With `C[C@H]1CN([C@@H](C)CO)S(=O)(=O)c2ccc(-c3cccc(C#N)c3)cc2O[C@H]1CN(C)Cc1cccc(F)c1` as the compound, how does the AC50 [12] read?
**A.** The AC50 was 45.7 µM (active).

**Q.** And the AC50 [13]?
**A.** The AC50 was 43.1 µM (active).

**Q.** With `N#CC1=C(S)N=C(N)C(c2nc(-c3ccccc3)cs2)C12CCCCC2` (centres undefined) as the compound, how does the IC50 [15] read?
**A.** The IC50 was 23.2 µM (active).

**Q.** What about the IC50 [16] of the same compound?
**A.** Its IC50 is 10.4 µM (active).

**Q.** For `C[C@@H]1CN([C@H](C)CO)C(=O)c2cccc(NC(=O)CCCCCC(=O)Nc3ccccc3N)c2O[C@@H]1CN(C)Cc1ccc(C(F)(F)F)cc1`, which AC50 [7] is on record?
**A.** Its AC50 is 2.34 µM (active).

**Q.** Which IC50 [1] does the source give for `Cc1ccc(Oc2ncc(-c3ccc(Cl)cc3)cn2)cc1` here?
**A.** The IC50 was > 80 µM (inactive).

**Q.** Which IC50 [11] does the source give for `Cc1ccc(S(=O)(=O)CCC(=O)OC(C)C(=O)N2CCc3ccccc32)cc1` (centres undefined) here?
**A.** Its IC50 is 12.6 µM (active).

**Q.** For `Cc1ccc(S(=O)(=O)Nc2ccc3c(c2)C(=O)N([C@H](C)CO)C[C@H](C)[C@H](CN(C)S(=O)(=O)c2ccc(Cl)cc2)O3)cc1`, which AC50 [7] is on record?
**A.** The AC50 was 4.35 µM (active).
